This is an account of results in patent US10512656B2, “Compositions and methods for the treatment of lysosomal storage disorders and disorders characterized by lysosomal dysfunction” (Baylor College of Medicine, priority 2016, dated 2019).

For test [1], the system named is Cln3^Δex7-8 mice. The test is described as follows: Corpus callosum volume by MRI. The conditions noted are these: 12-month-old Cln3^Δex7-8 mice, trehalose; untreated 12.96±0.43 mm^3. The test is classed as in vivo, mouse. As for the experimental part: Mice were transcardially perfused before imaging. The head was removed and then the skin, muscle, ears, nose tip and lower jaw were removed to expose the skull. The head was fixed overnight in 4% paraformaldehyde at 4° C. The head was then transferred to 40 mLs of 0.01% sodium azide in PBS and rocked for 7 days at 4° C. The head was transferred to a solution of 5 mM gadopentetate dimeglumine (Bayer HealthCare Pharmaceuticals Inc., Wayne, N.J.) and 0.01% sodium azide in PBS and rocked for 25-35 days at 4° C. Incubation with gadopentetate dimeglumine improved the signal-to-noise ratio. Before imaging, the head was equilibrated to room temperature for 6-8 h.
A total of 48 scans per mouse were acquired on a 9.4 T Bruker Avance Biospec Spectrometer, 21-cm bore horizontal scanner with 35 mm volume resonator (Bruker BioSpin, Billerica, Mass.) with Paravision 5.0 software (Bruker Biospin, Billerica, Mass.). The three-dimensional DTI scan parameters are as follows: spin echo, b-value=0 and 1,000 s/mm^2, 20 diffusion directions with one non-diffusion weighted image, TR=500 ms, TE=14.8 ms, FOV=1.7×1.2×2.4 cm or 2.0×1.4×3.2 cm, matrix=128×96×96, NEX=1, δ=3 ms, Δ=7 ms. The acquisition time was ˜15 h.
The MRI images were first processed on DTI studio to extrapolate the fractional anisotropy. […]

In test [2] the test system is Cln3^Δex7-8 mice. In words: TEM counting of fingerprint profiles. The test is classed as in vivo, mouse. As for the experimental part: Mice were anaesthetized and perfused intracardially with saline solution followed by 2% formaldehyde+2.5% glutaraldehyde in 0.1M sodium cacodylate buffer (pH 7.4). Brains were removed and small pieces of cerebellum and cortex were collected, and further postfixed in 2% formaldehyde|o2.5% glutaraldehyde, 0.1M sodium cacodylate buffer (pH 7.4) for 24 h. One-hundred micrometer coronal sections were cut with a vibratome and fixed in 1% OsO4 in 0.1M cacodylate for 1 h, stained with uranyl acetate dehydrated and embedded in Eponate 812. Ultrathin sections at 60 nm were obtained on an RMC MT6000 ultramicrotome and examined with a Hitachi H7500 transmission electron microscope. Images were captured using a Gatan US1000 high-resolution digital camera and Digital Micrograph software (v1.82.366).

The target in test [3] is T1, mTORC1 (Homo sapiens, UniProt P42345).
T1 construct: endogenous in cells; host or cells: HeLa
In words: Immunoblot of mTORC1 substrates in HeLa cells. The test is classed as cell-based. The conditions noted are these: trehalose 24 h or 48 h. The procedure:
FIG. 8. […] HeLa cells were treated with trehalose for 24 h or 48 h, or with rapamycin (600 nM, 16 h) or Torin1 (300 nM, 2 h) as controls for mTORC1 inhibition. […] GAPDH was used as a loading control.
Brain tissue and cultured cells were collected and lysed in RIPA buffer (50 mM Tris-HCl, ph 7.4, 1% NP40, 0.5% Na-deoxycholate, 0.1% SDS, 150 mM NaCl, 2 mM EDTA and 50 mM NaF) including a cocktail of protease (Roche) and phosphatase (SIGMA) inhibitors. Protein concentrations were measured with the bicinchoninic acid protein assay kit (Pierce, Rockford, Ill.), using bovine serum albumin as standard. Lysates were separated via SDS-polyacrylamide gel electrophoresis (PAGE) and then transferred to nitrocellulose membranes. Blots were incubated in blocking buffer (5%, w/v, dried skimmed milk in Tris-buffered saline, pH 7.4 and 0.2% Tween 20, TBST) followed by overnight incubation with appropriate antibodies diluted in blocking buffer (5% dry milk). Western blot images were acquired by LAS 4000 (GE Healthcare) and quantified using ImageJ. Images have been cropped for presentation.
A general note: In western blotting, separated proteins are transferred to a membrane and probed.

Test [4] has as its system Akt. In words: Akt activity in HeLa cells, time course immunoblot. The test is classed as cell-based, human. The procedure:
FIG. 14. Akt phosphorylates TFEB at Ser467. […] Dashed boxes (upper row) show the location of the higher power inserts (lower row). (b) Subcellular fractionation of HeLa/TFEB cells incubated with the same kinase inhibitors. (c) Multi-alignment of TFEB amino-acid sequences from the following species: Ac, Anolis carolensis; Bt, Bos taurus; Dr, Danio rerio; Fc, Felix catus; Gg, gallus gallus; Hs, Homo sapiens; La, Loxodonta africana; Mm, Mus musculus; Rn, Rattus Norvegicus; Sh, Sarcophilus harrisii; Sp, Strongylocentrotus purpuratus; XI, Xenopus laevis. A consensus logo of Akt phosphorylation sites (generated at weblogo.berkeley.edu/logo.cgi) is aligned with TFEB sequences. Position 467 refers to the human protein sequence. (d) Subcellular localization of TFEB and TFEB(S467A). (e) Expression analysis of lysosomal and autophagy genes in HeLa cells transfected with TFEB or TFEB(S467A). […]
Brain tissue and cultured cells were collected and lysed in RIPA buffer (50 mM Tris-HCl, ph 7.4, 1% NP40, 0.5% Na-deoxycholate, 0.1% SDS, 150 mM NaCl, 2 mM EDTA and 50 mM NaF) including a cocktail of protease (Roche) and phosphatase (SIGMA) inhibitors. Protein concentrations were measured with the bicinchoninic acid protein assay kit (Pierce, Rockford, Ill.), using bovine serum albumin as standard. […] Western blot images were acquired by LAS 4000 (GE Healthcare) and quantified using ImageJ. […]

Turning to `OC[C@H]1O[C@H](O[C@H]2O[C@H](CO)[C@@H](O)[C@H](O)[C@H]2O)[C@H](O)[C@@H](O)[C@@H]1O` [trehalose, a-D-glucopyranosyl a-D-glucopyranoside], in test [1], the corpus callosum volume is recorded as 15.02±0.33 mm^3. In addition, the “number of fingerprint profiles” value in test [2] (Purkinje cells, P=0.047) is given as “significantly reduced the number of fingerprint profiles”; in test [2] (cortical neurons, P=0.017) it was “significantly reduced the number of fingerprint profiles”. The “phosphorylation state of mTORC1 substrates” value in test [3] is “no changes in their phosphorylation state”. Further, the Akt activity entry in test [4] is recorded as “inhibited Akt activity”.
